Test results taken from PubChem BioAssay AID1963827 (Molecular Pharmacology Branch, DTP, NCI, 2024).

System: 994946-033-R-J1-PDC complex spheroid viability
Test: Anticancer human tumor 994946-033-R-J1-PDC patient-derived melanoma cell line growth inhibition [POLQ]
Settings: for IC50: curve of first compound; for viability, T/C: stronger effect = lower value
Outline: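 Patient-derived tumour cells were co-cultured with HUVEC and mesenchymal stem cells as multicellular spheroids at 37 °C. They were treated with POLQ inhibitors (novobiocin, ART-558, RP6685) alone or combined with other agents. Top concentrations were at or near clinical Cmax (otherwise 10 microM; SN-38 at 1 microM), decreasing in half-log steps.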

[1] = second compound 0.0316 µM, first compound 0.0316 µM
[2] = second compound 0.0316 µM, first compound 0.1 µM
[3] = second compound 0.0316 µM, first compound 0.316 µM
[4] = second compound 0.0316 µM, first compound 1 µM
[5] = second compound 0.0316 µM, first compound 3.16 µM
[6] = second compound 0.0316 µM, first compound 10 µM
[7] = second compound 0.1 µM, first compound 0.0316 µM
[8] = second compound 0.1 µM, first compound 0.1 µM
[9] = second compound 0.1 µM, first compound 0.316 µM
[10] = second compound 0.1 µM, first compound 1 µM
[11] = second compound 0.1 µM, first compound 3.16 µM
[12] = second compound 0.1 µM, first compound 10 µM
[13] = second compound 0.316 µM, first compound 0.0316 µM
[14] = second compound 0.316 µM, first compound 0.1 µM
[15] = second compound 0.316 µM, first compound 0.316 µM
[16] = second compound 0.316 µM, first compound 1 µM
[17] = second compound 0.316 µM, first compound 3.16 µM
[18] = second compound 0.316 µM, first compound 10 µM
[19] = second compound 1 µM, first compound 0.0316 µM
[20] = second compound 1 µM, first compound 0.1 µM
[21] = second compound 1 µM, first compound 0.316 µM
[22] = second compound 1 µM, first compound 1 µM
[23] = second compound 1 µM, first compound 3.16 µM
[24] = second compound 1 µM, first compound 10 µM
[25] = second compound 3.16 µM, first compound 0.0316 µM
[26] = second compound 3.16 µM, first compound 0.1 µM
[27] = second compound 3.16 µM, first compound 0.316 µM
[28] = second compound 3.16 µM, first compound 1 µM
[29] = second compound 3.16 µM, first compound 3.16 µM
[30] = second compound 3.16 µM, first compound 10 µM
[31] = second compound 10 µM, first compound 0.0316 µM
[32] = second compound 10 µM, first compound 0.1 µM
[33] = second compound 10 µM, first compound 0.316 µM
[34] = second compound 10 µM, first compound 1 µM
[35] = second compound 10 µM, first compound 3.16 µM
[36] = second compound 10 µM, first compound 10 µM
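Further: spheroids exposed to drugs for 7 days.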
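Wherever viability, T/C is given: 100% = DMSO vehicle treated spheroids.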

In the case of CC1COCCN1c1cc(C2(O)CC3CCC(C2)O3)c2cnn(-c3ccn[nH]3)c2n1 (stereo unspecified) + Cc1cccc(N(C)C(=O)C2C(O)CCN2c2nc(C)cc(C(F)(F)F)c2C#N)c1, the IC50 (second compound 0.0316 µM) is reported as < 31.6 nM, the IC50 (second compound 0.1 µM) is reported as 37.9 nM and the IC50 (second compound 0.316 µM) is reported as < 31.6 nM. The IC50 (second compound 1 µM) was < 31.6 nM, the IC50 (second compound 3.16 µM) was 33.3 nM and the IC50 (second compound 10 µM) was < 31.6 nM. The viability, T/C [1] was 49.5%, the viability, T/C [2] was 34.5% and the viability, T/C [3] was 14.3%. The viability, T/C [4] was 15.3%, the viability, T/C [5] was 14.6% and the viability, T/C [6] was 5.33%. For the same compound, the viability, T/C [7] was 52.7%, the viability, T/C [8] was 37% and the viability, T/C [9] was 18.8%. It also gave a viability, T/C [10] of 12.3%, a viability, T/C [11] of 12% and a viability, T/C [12] of 4%. For the same compound, the viability, T/C [13] was 46.8%, the viability, T/C [14] was 26.4% and the viability, T/C [15] was 14.6%. For the same compound, the viability, T/C [16] was 18.4%, the viability, T/C [17] was 12.7% and the viability, T/C [18] was 2.62%. The viability, T/C [19] was 42%, the viability, T/C [20] was 23.1% and the viability, T/C [21] was 20.9%. It also gave a viability, T/C [22] of 17%, a viability, T/C [23] of 12.5% and a viability, T/C [24] of 3.16%. The viability, T/C [25] was 51.6%, the viability, T/C [26] was 27.2% and the viability, T/C [27] was 23.2%. For the same compound, the viability, T/C [28] was 13.5%, the viability, T/C [29] was 12.7% and the viability, T/C [30] was 10.9%. The viability, T/C [31] was 47.1%, the viability, T/C [32] was 38.4% and the viability, T/C [33] was 18.7%. It also gave a viability, T/C [34] of 23%, a viability, T/C [35] of 9.14% and a viability, T/C [36] of 5.05%.
For CC1COCCN1c1cc(C2(S(C)(=N)=O)CC2)nc(-c2ccnc3[nH]ccc23)n1 (stereo unspecified) + Nc1ccc(C#CCN(C(=O)Cc2ncc(C(F)(F)F)cc2C(F)(F)F)c2ccc(F)cc2)nn1, the IC50 (second compound 0.0316 µM) was 2250 nM, the IC50 (second compound 0.1 µM) was 5700 nM and the IC50 (second compound 0.316 µM) was 2000 nM. The IC50 (second compound 1 µM) was 2540 nM, the IC50 (second compound 3.16 µM) was 5120 nM and the IC50 (second compound 10 µM) was > 10000 nM. The viability, T/C [1] was 91.6%, the viability, T/C [2] was 93% and the viability, T/C [3] was 76.2%. For the same compound, the viability, T/C [4] was 74.6%, the viability, T/C [5] was 37.4% and the viability, T/C [6] was 42.1%. It also gave a viability, T/C [7] of 127%, a viability, T/C [8] of 135% and a viability, T/C [9] of 95%. The viability, T/C [10] was 72.4%, the viability, T/C [11] was 68.5% and the viability, T/C [12] was 37.9%. For the same compound, the viability, T/C [13] was 104%, the viability, T/C [14] was 86.5% and the viability, T/C [15] was 109%. The viability, T/C [16] was 59.4%, the viability, T/C [17] was 47.9% and the viability, T/C [18] was 39.5%. It also gave a viability, T/C [19] of 124%, a viability, T/C [20] of 127% and a viability, T/C [21] of 90.3%. It also gave a viability, T/C [22] of 63%, a viability, T/C [23] of 51.3% and a viability, T/C [24] of 40%. For the same compound, the viability, T/C [25] was 113%, the viability, T/C [26] was 110% and the viability, T/C [27] was 113%. The viability, T/C [28] was 85%, the viability, T/C [29] was 70.3% and the viability, T/C [30] was 25.3%. The viability, T/C [31] was 127%, the viability, T/C [32] was 102% and the viability, T/C [33] was 108%. It also gave a viability, T/C [34] of 71.2%, a viability, T/C [35] of 67.6% and a viability, T/C [36] of 49.9%.
For CC1COCCN1c1cc(C2(S(C)(=N)=O)CC2)nc(-c2ccnc3[nH]ccc23)n1 (stereo unspecified) + COC1C(OC(N)=O)C(O)C(Oc2ccc3c(O)c(NC(=O)c4ccc(O)c(CC=C(C)C)c4)c(=O)oc3c2C)OC1(C)C, the IC50 (second compound 0.0316 µM) was 4130 nM, the IC50 (second compound 0.1 µM) was 1390 nM and the IC50 (second compound 0.316 µM) was 4030 nM. For the same compound, the IC50 (second compound 1 µM) was 8120 nM, the IC50 (second compound 3.16 µM) was > 10000 nM and the IC50 (second compound 10 µM) was 3190 nM. The viability, T/C [1] was 134%, the viability, T/C [2] was 95.5% and the viability, T/C [3] was 99.4%. For the same compound, the viability, T/C [4] was 45.6%, the viability, T/C [5] was 61.9% and the viability, T/C [6] was 41.1%. It also gave a viability, T/C [7] of 113%, a viability, T/C [8] of 101% and a viability, T/C [9] of 68.2%. It also gave a viability, T/C [10] of 65.3%, a viability, T/C [11] of 29.2% and a viability, T/C [12] of 36.1%. For the same compound, the viability, T/C [13] was 78.1%, the viability, T/C [14] was 116% and the viability, T/C [15] was 92.4%. It also gave a viability, T/C [16] of 63.9%, a viability, T/C [17] of 61.5% and a viability, T/C [18] of 34.1%. The viability, T/C [19] was 138%, the viability, T/C [20] was 105% and the viability, T/C [21] was 80.8%. The viability, T/C [22] was 68.9%, the viability, T/C [23] was 52.9% and the viability, T/C [24] was 49.6%. For the same compound, the viability, T/C [25] was 101%, the viability, T/C [26] was 90.5% and the viability, T/C [27] was 80.5%. The viability, T/C [28] was 75%, the viability, T/C [29] was 54.6% and the viability, T/C [30] was 57.9%. For the same compound, the viability, T/C [31] was 103%, the viability, T/C [32] was 85.4% and the viability, T/C [33] was 99%. The viability, T/C [34] was 102%, the viability, T/C [35] was 50% and the viability, T/C [36] was 37%.
